# Structures can show the parent of a compound that is named as a salt.
# Assays:
# Format in all cases: in vivo, C. elegans
# [1] = test system: protein misfolding and aggregation in transgenic worms; test: Preventative assay of protein aggregation (drug from hatching to L2 stage); details: exposure from hatching to L2 stage; scored at L3 and young adult
# Procedure, shortened: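 Transgenic worms were raised on drug plates at 20° C from hatching to L2 (about 3 days), then moved to solvent control plates. Aggregates were counted in L3 worms 8 hours later and in young adults 32 hours later. Scaled effectiveness = […], with A as solvent-only worms, B as lifelong-drug worms and C as pre-L2-exposed worms.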
# [2] = test system: protein misfolding and aggregation in transgenic worms; test: Corrective assay of protein aggregation (drug from L2 stage onward); details: drug exposure from L2 stage onward; scored at L3 and young adult
# Experimental: To see the corrective effect of the candidate drug compounds on protein misfolding and aggregation, five gravid adult worms were placed onto a solvent control plate and grown at 20° C. for approximately 3 days. 35-40 Fl worms at L2 stage were picked and transferred to a drug plate. Thirty worms at L3 stage were counted for aggregate number 8 hours later. Thirty young adults were analyzed 32 hours later.
# To calculate the scaled effectiveness of special regimen of drugs on worms based on standardized decrease in protein aggregates. The following formula was used: (A−B)/(A−C)×100%, where
# A=number of aggregates for worms growing on solvent control plates
# B=number of aggregates for worms grown on the specific drug plate for the entire life of the worms
# C=number of aggregates for worms that received exposure from L2 stage (until adulthood)
# If the regimen has no effect, the value would equal 0%. Conversely, if the regimen was as effective as raising the worms on the drug for their entire life, the value would equal 100%.
# [3] = test system: worms containing Punc-54::Q82::GFP+Punc-54::torsinA+Punc54::torsinA (ΔE); test: Screen for reduction of polyglutamine protein aggregates in worms with wt and mutant torsinA; details: differentiated by Q82::GFP lines without torsinA, with wt torsinA or with mutant torsinA
# Experimental: C elegans nematodes were grown at 20° C. on NGM plates as described by Brenner (Brenner, Genetics, 1974, 77: 71-94). Several transgenic C. elegans lines were used for primary screens of the Prestwick small molecule library. A transgenic worm line expressing Punc-54::Q82-GFP; with both wild type (“wt”) (Punc=54: :torsinA) or mutant (Punc-54::torsinA(ΔE)). Torsin-A expresses a phenotype that results in visible protein aggregation under fluorescent microscope. Transgenic worms were plated on drug plates and progeny were studied for a return to soluble protein.
# Drugs were administered to C. elegans according to a standard procedure (Rand and Johnson, Methods Cell Biol, 1995, 48: 187-204), by mixing the solubilized drug with the agar medium on which the worms are grown. This mode of administration allows the continuous exposure of worms to the drug.
# Each drug was first dissolved in an appropriate solvent, followed by adding the drug solution into pre-autoclaved media, with the volume of drug solution already taken into account. […] Each plate was seeded with 100 μl concentrated E. coli OP50 bacteria.
# The screening assays used to identify the compounds use protein aggregation readouts to determine the specificities of molecular action. […]
# The methods for the aggregate analysis assay are described in Caldwell et al. (Hum Mol Genetics, 2003, 12(3): 307-319). […] MetaMorph Software (Universal Imaging Inc.) was used for pseudocoloration of images, image overlay, and aggregate size quantitation. For each worm line analyzed, average aggregate size was determined by capturing images of all aggregates in the posterior region of 30 L3-staged animals (for Q82::GFP aggregates) or all aggregates in 30 adult animals/day (for Q19::GFP analyses) at 1000× magnification. […]
# To see the effect of the candidate compounds on suppressing protein misfolding and aggregation, five gravid adult worms were placed onto each drug plate and grown at 20° C. for approximately 3 days. Thirty Fl worms at L3 stage and young adult stage were counted for aggregate number.
# [4] = test system: Pdat-1::GFP+Pdat-1::α-synuclein+Pdat-1:: torsinA (ΔE) worms; test: α-synuclein toxicity assay, mutant torsinA
# Procedure, shortened: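 C. elegans lines expressing GFP and α-synuclein in dopamine neurons, with wild-type or ΔE torsinA, exposed to compounds; readout is the share of worms keeping all 4 wild-type CEP dopamine neurons as 4-day adults.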
compound,measurement,setting,value
"C=N[C@@H](C(=O)N[C@@H]1C(=O)N2[C@@H]1SC(C)(C)[C@@H]2C(=O)O)c1ccccc1 [Compound 235, Metampicillin sodium salt]",preventative effect on protein aggregation,[1],seem to be beneficial
same,corrective effect on protein aggregation,[2],seem to be beneficial
same,Specificity in worm assay,[3],wt torsinA
same,enhanced DA neuron survival,[4],no significant neuroprotection

# Source: patent US20070203079A1, “Methods of using small molecule compounds for neuroprotection” (priority 2005, published 2007)
